Structures can show the parent of a compound that is named as a salt.
Tested on: MRC5-hT fibroblasts expressing HCMV UL38 (glucose-free medium)
Experiment: rescue of cell number (AUC of dose-response) relative to untreated glucose-free control; higher = stronger protection from glucose-starvation-induced cell death
Conditions: glucose: 0 (glucose-free DMEM); 96 h; dose range 0.001-20, 10-point curve µM
Protocol: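 MRC5-hT fibroblasts stably expressing HCMV UL38 were seeded in 384-well plates, serum-starved for 24 h, switched to glucose-free DMEM, and pin-transferred with a metabolism-focused compound library as 10-point dose curves (1 nM to 20 µM; n=2). Nuclei were counted by Hoechst imaging 96 h after glucose withdrawal.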

| SMILES | rescue of cell number |
| --- | --- |
| C[C@H]1[C@H](OC(=O)CCC(=O)O)O[C@@H]2O[C@@]3(C)CC[C@H]4[C@H](C)CC[C@@H]1[C@@]24OO3 [Artesunate] | 9.86% |
| CC(=O)Oc1ccccc1C(=O)O [Aspirin] | 25.2% |
| CC(=O)OC[C@H]1O[C@@H]([S-])[C@H](OC(C)=O)[C@@H](OC(C)=O)[C@@H]1OC(C)=O.CCP(CC)CC.[Au+] [Auranofin] | -0.594% |
| OC[C@H]1O[C@H]([S-])[C@H](O)[C@@H](O)[C@@H]1O.[Au+] [Aurothioglucose] | -13.7% |
| CC(C)c1cc(C(C)C)c(CC(=O)NS(=O)(=O)Oc2c(C(C)C)cccc2C(C)C)c(C(C)C)c1 [Avasimibe] | 7.22% |
| [N-]=[N+]=CC(=O)OC[C@H](N)C(=O)O [Azaserine] | -20.4% |
| O=C(Cc1ccccc1)Nc1nnc(CCSCCc2nnc(NC(=O)Cc3ccccc3)s2)s1 [BPTES] | -24.3% |
| C=C(C)[C@@H]1CC[C@]2(C(=O)O)CC[C@]3(C)[C@H](CC[C@@H]4[C@@]5(C)CC[C@H](O)C(C)(C)[C@@H]5CC[C@]43C)[C@@H]12 [Betulinic_acid] | 17.8% |
| Cc1c(-c2ccc(-c3ccccc3F)cc2)nc2ccc(F)cc2c1C(=O)O [Brequinar] | 126% |
| O=C(O)C(=O)CBr [Bromopyruvic_acid] | 134% |
| CCCCNc1cc(C(=O)O)cc(S(N)(=O)=O)c1Oc1ccccc1 [Bumetanide] | -20.9% |
| CN(Cc1ccc(C(C)(C)C)cc1)Cc1cccc2ccccc12 [Butenafine] | 14.4% |
| O=C(Cc1cccc(OC(F)(F)F)c1)Nc1ccc(CCCCc2nnc(NC(=O)Cc3ccccn3)s2)nn1 [CB-839] | 38.5% |
| CCOC(=O)c1sc(NC(=O)c2ccco2)c(SC#N)c1C [CBR 5884] | 88% |
| O=C(O)c1ccc2cc(-c3ccc(O)c(C45CC6CC(CC(C6)C4)C5)c3)ccc2c1 [CD_437] | 25.4% |
| CC(C)C[C@@H](C(=O)N[C@H](C(=O)OC1CCCC1)c1ccccc1)[C@H](O)C(=O)NO [CHR_2797] | -14.9% |
| O=C(O)CCCCC(CCSCc1ccccc1)SCc1ccccc1 (stereo not given) [CPI-613] | 28.9% |
| Cc1ccc([C@@H]2O[C@H](CO)[C@@H](O)[C@H](O)[C@H]2O)cc1Cc1ccc(-c2ccc(F)cc2)s1 [Canagliflozin] | 108% |
| O[C@H]1[C@H](O)[C@@H](O)CN2CC[C@H](O)[C@H]12 [Castanospermine] | -30.6% |
| Cc1ccc(-c2cc(C(F)(F)F)nn2-c2ccc(S(N)(=O)=O)cc2)cc1 [Celecoxib] | 68.1% |
| C/C=C/C/C=C/CCC(=O)[C@H]1O[C@H]1C(N)=O [Cerulenin] | 34.9% |
| CCCCCCCCCCCCCCCCOc1nc2ccc(C)cc2c(=O)o1 [Cetilistat] | -5.21% |
| CN1C(=O)[C@@]23C[C@]4([C@]56C[C@@]78SS[C@@](CO)(C(=O)N7[C@H]5Nc5ccccc56)N(C)C8=O)c5ccccc5N[C@@H]4N2C(=O)[C@]1(CO)SS3 [Chaetocin] | 11.4% |
| O=C(N[C@H](CO)[C@H](O)c1ccc([N+](=O)[O-])cc1)C(Cl)Cl [Chloramphenicol] | -10.7% |

| SMILES | rescue of cell number |
| --- | --- |
| O=C(/C=C/c1ccc(O)c(O)c1)O[C@@H]1C[C@](O)(C(=O)O)C[C@@H](O)[C@H]1O [Chlorogenic_acid] | 95% |
| Nc1nc(Cl)nc2c1ncn2[C@H]1C[C@H](O)[C@@H](CO)O1 [Cladribine] | -12.9% |
| COc1cc(/C=C/C(=O)CC(=O)/C=C/c2ccc(O)c(OC)c2)ccc1O [Curcumin] | 32% |
| Nc1ccn([C@@H]2C=C(CO)[C@@H](O)[C@H]2O)c(=O)n1 [Cyclopentenyl_cytosine] | 84.2% |
| Nc1cccc(S(=O)(=O)N2CCCN(S(=O)(=O)c3ccc4c(c3)OCCO4)CC2)c1 [DASA-58] | 68% |
| CCOc1ccc(Cc2cc([C@@H]3O[C@H](CO)[C@@H](O)[C@H](O)[C@H]3O)ccc2Cl)cc1 [Dapagliflozin] | -33.4% |
| Cc1c(O)c(=O)ccn1C [Deferiprone] | 25.4% |
| O=C(O)Cc1ccccc1Nc1c(Cl)cccc1Cl [Diclofenac] | -20% |
| O=c1oc2ccccc2c(O)c1Cc1c(O)c2ccccc2oc1=O [Dicoumarol] | -17.7% |
| C[C@H]1O[C@@H](O[C@H]2[C@@H](O)C[C@H](O[C@H]3[C@@H](O)C[C@H](O[C@H]4CC[C@@]5(C)[C@H](CC[C@@H]6[C@@H]5CC[C@]5(C)[C@@H](C7=CC(=O)OC7)CC[C@]65O)C4)O[C@@H]3C)O[C@@H]2C)C[C@H](O)[C@@H]1O [Digitoxin] | 23.7% |
| O=S(=O)(O)CCSSCCS(=O)(=O)O [Dimesna] | -37.8% |
| COC(=O)/C=C/C(=O)OC [Dimethyl fumarate] | 67.2% |
| c1ccc2c(c1)[I+]c1ccccc1-2 [Diphenyleneiodonium_chloride] | 22.9% |
| OCCN(CCO)c1nc(N2CCCCC2)c2nc(N(CCO)CCO)nc(N3CCCCC3)c2n1 [Dipyridamole] | 141% |
| CCN(CC)C(=S)SSC(=S)N(CC)CC [Disulfiram] | 113% |
| c1cc(-c2cnn3cc(-c4ccc(OCCN5CCCCC5)cc4)cnc23)ccn1 [Dorsomorphin] | 66.2% |
| CCN[C@H]1C[C@H](C)S(=O)(=O)c2sc(S(N)(=O)=O)cc21 [Dorzolamide] | 104% |
| O=c1c2ccccc2[se]n1-c1ccccc1 [Ebselen] | -18.8% |
| CC1(C)C(N(O)C(=O)Nc2ccc(Cl)cc2)N(c2ccc(Cl)cc2)C(=O)N1CC(=O)NN=CC=Cc1ccc([N+](=O)[O-])o1 (stereo not given) [Eeyarestatin_I] | 11.4% |
| CN(NC(=O)CC(=O)NN(C)C(=S)c1ccccc1)C(=S)c1ccccc1 [Elesclomol] | 111% |
| OC[C@H]1O[C@@H](c2ccc(Cl)c(Cc3ccc(O[C@H]4CCOC4)cc3)c2)[C@H](O)[C@@H](O)[C@@H]1O [Empagliflozin] | 86.7% |
| CCOc1ccccc1-n1c(C(C)N2CCN(C(=O)COc3ccc(Cl)cc3)CC2)nc2ccccc2c1=O (stereo not given) [Erastin] | 68.6% |
| CC[n+]1c(-c2ccccc2)c2cc(N)ccc2c2ccc(N)cc21 [Ethidium_Bromide] | 97.6% |
| CCOC(=O)[C@@H](N)CCC(=O)N[C@@H](CSCc1ccccc1)C(=O)N[C@@H](C(=O)OCC)c1ccccc1 [Ezatiostat] | -9.45% |

| SMILES | rescue of cell number |
| --- | --- |
| O=C(/C=C/c1cccnc1)NCCCCC1CCN(C(=O)c2ccccc2)CC1 [FK_866] | 26.9% |
| CCCc1cc(-c2nc(-c3ccc(C)cc3)cs2)ccn1 [Fatostatin_A] | 76.5% |
| Cc1nc(-c2ccc(OCC(C)C)c(C#N)c2)sc1C(=O)O [Febuxostat] | 73.9% |
| Cc1cnc(Nc2ccc(OCCN3CCCC3)cc2)nc1Nc1cccc(S(=O)(=O)NC(C)(C)C)c1 [Fedratinib] | 40.7% |
| CC1=C(/C=C/C(C)=C/C=C/C(C)=C/C(=O)Nc2ccc(O)cc2)C(C)(C)CCC1 [Fenretinide] | 12.2% |
| CC(C)(C)NC(=O)[C@H]1CC[C@H]2[C@@H]3CC[C@H]4NC(=O)C=C[C@]4(C)[C@H]3CC[C@]12C [Finasteride] | -38.3% |
| CCCCCCCCc1ccc(CCC(N)(CO)CO)cc1 [Fingolimod] | -1.64% |
| Nc1nc(F)nc2c1ncn2[C@@H]1O[C@H](CO)[C@@H](O)[C@@H]1O [Fludarabine] | 103% |
| CNCCC(Oc1ccc(C(F)(F)F)cc1)c1ccccc1 (stereo not given) [Fluoxetine] | 47% |
| Cc1cn[nH]c1 [Fomepizole] | 81.1% |
| NS(=O)(=O)c1cc(C(=O)O)c(NCc2ccco2)cc1Cl [Furosemide] | -15.9% |
| COP(=O)(CCC(N)C(=O)O)Oc1cccc(CC(=O)O)c1 (stereo not given) [GGsTop] | -24% |
| O=C(CCCCCCCn1cc(-c2cccnc2)nn1)Nc1ccccc1-c1ccccc1 [GPP_78] | 20.3% |
| Nc1ccn([C@@H]2O[C@H](CO)[C@@H](O)C2(F)F)c(=O)n1 [Gemcitabine] | -5.76% |
| Cc1cc2c(C(C)C)c(O)c(O)c(C=O)c2c(O)c1-c1c(C)cc2c(C(C)C)c(O)c(O)c(C=O)c2c1O [Gossypol] | 43.9% |
| COc1c(O)cc2oc(-c3ccc(O)cc3)cc(=O)c2c1O [Hispidulin] | 145% |
| NC(=O)NO [Hydroxyurea] | 61.6% |
| OC[C@H]1O[C@@H](c2ccc(F)c(Cc3cc4ccccc4s3)c2)[C@H](O)[C@@H](O)[C@@H]1O [Ipragliflozin] | -33.8% |
| CC1=C(/C=C/C(C)=C/C=C/C(C)=C\C(=O)O)C(C)(C)CCC1 [Isotretinoin] | 128% |
| O=C(Oc1ccc([N+](=O)[O-])cc1)N1CCC(C(O)(c2ccc3c(c2)OCO3)c2ccc3c(c2)OCO3)CC1 [JZL184] | 136% |
| CC/C=C\C[C@H]1C(=O)CC[C@@H]1CC(=O)O [Jasmonate] | -19.1% |
| CC(=O)N1CCN(c2ccc(OCC3COC(Cn4ccnc4)(c4ccc(Cl)cc4Cl)O3)cc2)CC1 (stereo not given) [Ketoconazole] | -8.71% |

From the supplement of paper PMC10790783
